Data reported in PubChem BioAssay AID248 (DTP/NCI, 2004).
Where “and” joins values, the source holds several entries; their conditions need not be identical. Equal entries are not always repeated. Inconclusive results and toxic doses are left out.

Test system: L1210 leukemia ip in BDF1 mice, survival T/C
Experiment: NCI In Vivo Anticancer Drug Screen. Data for tumor model L1210 Leukemia (intraperitoneal) in B6D2F1 (BDF1) mice
Conditions: endpoint: mean survival time, higher = longer survival
Method in brief: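 Transplanted-tumor mice were given test agent; controls received vehicle only. Survival readings from the two groups were divided (treated over control).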

## CC(=O)OCC1OC(n2ncc(=O)[nH]c2=O)C(OC(C)=O)C1OC(C)=O (stereo not given)
dose: 5.3 mg/kg/injection, schedule: Q01DX Z (oral), vehicle: carboxymethylcellulose (CMC)
  T/C: 122 % of control
dose: 8.0 mg/kg/injection, schedule: Q01DX Z (oral), vehicle: carboxymethylcellulose (CMC)
  T/C: 119 % of control
dose: 8.0 mg/kg/injection, schedule: Q03HX024 (ip), vehicle: other
  T/C: 104 % of control
dose: 8.0 mg/kg/injection, schedule: Q03HX024 (oral), vehicle: other
  T/C: 117 % of control
dose: 8.8 mg/kg/injection, schedule: Q01DX Z (ip), vehicle: carboxymethylcellulose (CMC)
  T/C: 114 % of control
dose: 10.0 mg/kg/injection, schedule: Q01DX Z (im), vehicle: carboxymethylcellulose (CMC)
  T/C: 121 % of control
dose: 11.66 mg/kg/injection, schedule: Q#B X Z (ip), vehicle: carboxymethylcellulose (CMC)
  T/C: 111 % of control
dose: 13.0 mg/kg/injection, schedule: Q01DX Z (ip), vehicle: carboxymethylcellulose (CMC)
  T/C: 118 % of control
dose: 15.0 mg/kg/injection, schedule: Q01DX Z (im), vehicle: carboxymethylcellulose (CMC)
  T/C: 122 % of control
dose: 15.0 mg/kg/injection, schedule: Q01DX Z (sc), vehicle: carboxymethylcellulose (CMC)
  T/C: 116 % of control
dose: 16.0 mg/kg/injection, schedule: Q03HX008 (ip), vehicle: other
  T/C: 103 % of control
dose: 16.0 mg/kg/injection, schedule: Q03HX016 (ip), vehicle: other
  T/C: 105 % of control
dose: 18.33 mg/kg/injection, schedule: Q#B X Z (ip), vehicle: carboxymethylcellulose (CMC)
  T/C: 113 % of control
dose: 20.0 mg/kg/injection, schedule: Q01DX Z (ip), vehicle: carboxymethylcellulose (CMC)
  T/C: 120 % of control
dose: 23.0 mg/kg/injection, schedule: Q01DX Z (im), vehicle: carboxymethylcellulose (CMC)
  T/C: 121 % of control
dose: 26.66 mg/kg/injection, schedule: Q#B X Z (ip), vehicle: carboxymethylcellulose (CMC)
  T/C: 116 % of control
dose: 31.0 mg/kg/injection, schedule: Q01DX Z (ip), vehicle: carboxymethylcellulose (CMC)
  T/C: 120 % of control
dose: 32.0 mg/kg/injection, schedule: Q03HX008 (ip), vehicle: other
  T/C: 102 % of control
dose: 32.0 mg/kg/injection, schedule: Q03HX016 (ip), vehicle: other
  T/C: 103 % of control
dose: 32.0 mg/kg/injection, schedule: Q03HX024 (ip), vehicle: other
  T/C: 118 % of control
dose: 32.0 mg/kg/injection, schedule: Q03HX024 (oral), vehicle: other
  T/C: 122 % of control
dose: 61.66 mg/kg/injection, schedule: Q#B X Z (ip), vehicle: carboxymethylcellulose (CMC)
  T/C: 120 % of control
dose: 62.0 mg/kg/injection, schedule: Q01DX Z (oral), vehicle: carboxymethylcellulose (CMC)
  T/C: 157 % of control
dose: 64.0 mg/kg/injection, schedule: Q03HX008 (ip), vehicle: other
  T/C: 108 % of control
dose: 64.0 mg/kg/injection, schedule: Q03HX016 (ip), vehicle: other
  T/C: 103 % of control
dose: 64.0 mg/kg/injection, schedule: Q04DX003 (ip), vehicle: other
  T/C: 103 % of control
dose: 64.0 mg/kg/injection, schedule: Q04DX003 (oral), vehicle: other
  T/C: 109 % of control
dose: 85.0 mg/kg/injection, schedule: Q01DX Z (im), vehicle: carboxymethylcellulose (CMC)
  T/C: 122 % of control
dose: 93.33 mg/kg/injection, schedule: Q#B X Z (ip), vehicle: carboxymethylcellulose (CMC)
  T/C: 124 % of control and 86 % of control
dose: 125.0 mg/kg/injection, schedule: Q01DX001 (ip), vehicle: carboxymethylcellulose (CMC)
  T/C: 102 % of control and 107 % of control
dose: 125.0 mg/kg/injection, schedule: Q01DX006 (iv), vehicle: carboxymethylcellulose (CMC)
  T/C: 118 % of control
dose: 125.0 mg/kg/injection, schedule: Q03DX Z (ip), vehicle: carboxymethylcellulose (CMC)
  T/C: 121 % of control
dose: 125.0 mg/kg/injection, schedule: Q07DX Z (ip), vehicle: carboxymethylcellulose (CMC)
  T/C: 110 % of control
dose: 128.0 mg/kg/injection, schedule: Q01DX001 (ip), vehicle: other
  T/C: 105 % of control
dose: 128.0 mg/kg/injection, schedule: Q03HX008 (ip), vehicle: other
  T/C: 109 % of control
dose: 128.0 mg/kg/injection, schedule: Q03HX016 (ip), vehicle: other
  T/C: 119 % of control
dose: 128.0 mg/kg/injection, schedule: Q04DX003 (ip), vehicle: other
  T/C: 110 % of control
dose: 128.0 mg/kg/injection, schedule: Q04DX003 (oral), vehicle: other
  T/C: 101 % of control
dose: 128.0 mg/kg/injection, schedule: Q08DX002 (ip), vehicle: other
  T/C: 101 % of control
dose: 166.66 mg/kg/injection, schedule: Q#B X Z (ip), vehicle: carboxymethylcellulose (CMC)
  T/C: 157 % of control
dose: 185.0 mg/kg/injection, schedule: Q01DX Z (sc), vehicle: carboxymethylcellulose (CMC)
  T/C: 121 % of control
dose: 250.0 mg/kg/injection, schedule: Q01DX001 (ip), vehicle: carboxymethylcellulose (CMC)
  T/C: 100 % of control and 103 % of control
dose: 250.0 mg/kg/injection, schedule: Q01DX Z (im), vehicle: carboxymethylcellulose (CMC)
  T/C: 161 % of control
dose: 250.0 mg/kg/injection, schedule: Q03DX Z (ip), vehicle: carboxymethylcellulose (CMC)
  T/C: 122 % of control
dose: 250.0 mg/kg/injection, schedule: Q07DX Z (ip), vehicle: carboxymethylcellulose (CMC)
  T/C: 115 % of control
dose: 256.0 mg/kg/injection, schedule: Q01DX001 (ip), vehicle: other
  T/C: 97 % of control
dose: 256.0 mg/kg/injection, schedule: Q04DX003 (ip), vehicle: other
  T/C: 106 % of control
dose: 256.0 mg/kg/injection, schedule: Q04DX003 (oral), vehicle: other
  T/C: 120 % of control
dose: 256.0 mg/kg/injection, schedule: Q08DX002 (ip), vehicle: other
  T/C: 96 % of control
dose: 280.0 mg/kg/injection, schedule: Q01DX Z (sc), vehicle: carboxymethylcellulose (CMC)
  T/C: 151 % of control
dose: 420.0 mg/kg/injection, schedule: Q01DX Z (sc), vehicle: carboxymethylcellulose (CMC)
  T/C: 108 % of control
dose: 450.0 mg/kg/injection, schedule: Q01DX010 (ip), vehicle: saline
  T/C: 116 % of control
dose: 500.0 mg/kg/injection, schedule: Q01DX001 (ip), vehicle: carboxymethylcellulose (CMC)
  T/C: 102 % of control and 113 % of control
dose: 500.0 mg/kg/injection, schedule: Q01DX Z (im), vehicle: carboxymethylcellulose (CMC)
  T/C: 150 % of control
dose: 500.0 mg/kg/injection, schedule: Q01DX Z (sc), vehicle: carboxymethylcellulose (CMC)
  T/C: 154 % of control
dose: 500.0 mg/kg/injection, schedule: Q03DX Z (ip), vehicle: carboxymethylcellulose (CMC)
  T/C: 121 % of control
dose: 500.0 mg/kg/injection, schedule: Q07DX Z (ip), vehicle: carboxymethylcellulose (CMC)
  T/C: 113 % of control
dose: 512.0 mg/kg/injection, schedule: Q01DX001 (ip), vehicle: other
  T/C: 104 % of control
dose: 512.0 mg/kg/injection, schedule: Q01DX009 (oral), vehicle: other
  T/C: 151 % of control
dose: 512.0 mg/kg/injection, schedule: Q04DX003 (ip), vehicle: other
  T/C: 106 % of control
dose: 512.0 mg/kg/injection, schedule: Q08DX002 (ip), vehicle: other
  T/C: 105 % of control
dose: 675.0 mg/kg/injection, schedule: Q01DX010 (ip), vehicle: saline
  T/C: 93 % of control
dose: 1000.0 mg/kg/injection, schedule: Q01DX001 (ip), vehicle: carboxymethylcellulose (CMC)
  T/C: 97 % of control and 122 % of control
dose: 1000.0 mg/kg/injection, schedule: Q01DX Z (im), vehicle: carboxymethylcellulose (CMC)
  T/C: 158 % of control
dose: 1000.0 mg/kg/injection, schedule: Q01DX Z (ip), vehicle: carboxymethylcellulose (CMC)
  T/C: 102 % of control
dose: 1000.0 mg/kg/injection, schedule: Q01DX Z (oral), vehicle: carboxymethylcellulose (CMC)
  T/C: 86 % of control
dose: 1000.0 mg/kg/injection, schedule: Q01DX Z (sc), vehicle: carboxymethylcellulose (CMC)
  T/C: 117 % of control
dose: 1000.0 mg/kg/injection, schedule: Q07DX Z (ip), vehicle: carboxymethylcellulose (CMC)
  T/C: 113 % of control
dose: 1014.0 mg/kg/injection, schedule: Q01DX010 (ip), vehicle: saline
  T/C: 100 % of control
dose: 1024.0 mg/kg/injection, schedule: Q01DX001 (ip), vehicle: other
  T/C: 101 % of control
dose: 1024.0 mg/kg/injection, schedule: Q08DX002 (ip), vehicle: other
  T/C: 106 % of control

## COc1ccc(C=NCCN=Cc2ccc(OC)cc2OC)c(OC)c1
dose: 6.25 mg/kg/injection, schedule: Q01DX009 (ip), vehicle: saline with Tween-80
  T/C: 97 % of control
dose: 6.25 mg/kg/injection, schedule: Q04DX003 (ip), vehicle: saline with Tween-80
  T/C: 98 % of control
dose: 12.5 mg/kg/injection, schedule: Q01DX009 (ip), vehicle: saline with Tween-80
  T/C: 87 % of control
dose: 12.5 mg/kg/injection, schedule: Q04DX003 (ip), vehicle: saline with Tween-80
  T/C: 91 % of control
dose: 25.0 mg/kg/injection, schedule: Q01DX009 (ip), vehicle: saline with Tween-80
  T/C: 87 % of control
dose: 25.0 mg/kg/injection, schedule: Q04DX003 (ip), vehicle: saline with Tween-80
  T/C: 95 % of control

## CCC(C)N(CCNc1cc(C)nc(/N=C(\N)Nc2ccc(Cl)c(Cl)c2)n1)C(C)CC (stereo not given)
dose: 100.0 mg/kg/injection, schedule: Q01DX009 (ip), vehicle: Klucel (hydroxypropylcellulose) (HPC)
  T/C: 106 % of control
dose: 200.0 mg/kg/injection, schedule: Q01DX009 (ip), vehicle: Klucel (hydroxypropylcellulose) (HPC)
  T/C: 97 % of control
dose: 400.0 mg/kg/injection, schedule: Q01DX009 (ip), vehicle: Klucel (hydroxypropylcellulose) (HPC)
  T/C: 86 % of control
